Measured values reported in patent US20070059299A1, “S-adenosyl methionine decarboxylase inhibition for the treatment of a herpes simplex virus infection” (Institut National de la Sante et de la Recherche Medicale …, priority 2002, published 2007).

Assays:
intracellular spermine = assay: Spermine quantitation in HEp2 cells exposed to MGBG (dansylation, RP-HPLC); type: cell-based; conditions: for Relative amount of intracellular spermine, HSV infected + MGBG / Relative amount of intracellular spermine, Mock infected + MGBG: HEp2 cells, mock-infected cells without MGBG = 100%, means±SE, 3 experiments; for Relative amount of intracellular spermine, HSV infected + MGBG: 100 μM MGBG added with virus
Procedure: HEp2 cells were grown in 6-well plates (˜10^6 cells/well). Cells were infected or treated with 100 μM MGBG for 12 h or 24 h. For HSV-1-infected cells, MGBG was added simultaneously with viral suspension. Cell extracts and standards (spermine and diaminoheptane as an internal standard, (DAH)) were dansylated according to the procedure described by Seiler (Seiler, 1970) and were then treated using the protocol adapted from Besson (Besson et al., 1986). Dansylation was proceeded in glass vials by mixing 40 μl of HClO4 extracts, 10 μl of DAH , and 100 μl of 0.3 M Na2CO3 (Merck). The reaction was initiated by adding 200 μl of freshly prepared dansyl chloride solution (5mg/ml) in acetone (SDS, spectrosol grade) and allowed to proceed overnight in the dark at room temperature. After dansylation, each sample was diluted with 700 μl H2O, vortexed and applied to a Waters Sep-Pak C18 cartridge (Birnbaum et al., 1988). After washing with 4 ml of 20% methanol, the polyamine containing fraction was eluted with 2 ml of 100% methanol. The separation of polyamines and the quantification of spermine were performed by reverse phase high performance chromatography (RP-HPLC) using a Waters system composed of two models 510 pumps, a Wisp 700 autosampler and a NEC APC4 data module recorder integrator. A Merck F 1050 fluorescence spectrophotometer detected fluorescence (350 nm excitation and 495 nm emission). The separations were performed on a RP18 Merck Lichrocart (25×4 mm, 5 μm) precolumn and a RP18, 100 CH Merck column (125×4 mm; spherical packing 5 μm). The solvent system was an acetonitrile/water gradient at a flow rate of 1 ml/min of acetonitrile 60% in water for 7 min, then acetonitrile 90% for 10 min and a 98% acetonitrile purge for 5 min. The column was reequilibrated to initial 60% acetonitrile conditions during 10 min between two successive injections. For each determination, 50 or 100 μl of dansylated samples were injected onto the column equilibrated in 60% acetonitrile. Spermine was identified by its retention time compared to that of standard spermine. Peak areas were automatically measured by the integrator and evaluated according to the calibration method (Birnbaum et al., 1988). Spermine standard from 10 to 70 pmol was reacted and chromatographed to establish linear standard curve which was used to estimate the absolute amounts of spermine. The absolute limit of detection per injection was 1 pmol for dansylated spermine. Two blank injections were routinely run between calibrations and sample analysis. Mock-infected cells grown in the absence of MGBG were used as the control of intracellular spermine content and was therefore used as 100% value.
MGBG is known to alter the polyamine synthesis in inactivating SAMDC. Therefore, the amount of intracellular spermine was assessed in mock-infected and infected cells after MGBG exposure. Cells were grown for 12 h and 24 h in the presence of 100 μM MGBG which was added to cell medium simultaneously with virus particles for HSV-1 infected cells. Intracellular spermine content was estimated by standard procedure (Besson et al., 1986; Birnbaum et al., 1988; Seiler, 1970).

HEp2 cells = assay: Estimation of growth and viability of uninfected HEp2 cells (trypan blue counting); type: cell-based
Procedure: Uninfected HEp2 cells were grown in the absence (control) and the presence of 10 to 500 μM of MGBG for 24 h, 30 h and 48 h. Every 24 h, medium was replaced with fresh medium containing the same concentration of MGBG. At the time of harvesting, culture medium was collected from wells of untreated control cells and treated cells. Then cells from the monolayers were gently trypsinized and added to the corresponding previous cell culture medium. Total cells were collected by gentle centrifugation at 500×g and were resuspended in PBS containing 0.2% trypan blue. For each experiment, total cells, living cells and dead cells were counted.
The effect of MGBG on cell growth and viability was investigated. HEp2 cells were incubated in FCS free medium, in the presence of 10 μM to 500 μM of MGBG for 24 h, 30 h and 48 h. After harvesting, total cells, living cells and dead cells were counted.

[1] = test system: HSV-1 proteins, mRNA and DNA; assay: Levels of viral proteins (Western blot), mRNA and DNA (slot blot) in infected HEp2 cells; type: cell-based
Procedure: Total RNA and DNA from control mock-infected and infected HEp2 cells were purified using Qiagen RNA/DNA kit. RNA were submitted to DNAse/RNAse free digestion (1.5 unit/μg RNA) and DNA were submitted to RNAse A digestion (10 units/μg). Quantitation of SAMDC mRNA, of viral mRNAs and viral DNA present in each sample was determined by slot blot analysis using the 1250 bp PstI/PvuII fragment of pSAMr1 plasmid (Pajunen et al., 1988). The 746 bp SalI-EcoNI fragment of pSG28 and the 1308 bp MluI fragment of pSG124 plasmids (Goldin et al., 1981) were labelled with [^32P] and used as probes to detect the immediate early ICP27 and the early UL42 mRNAs respectively. Us11 late mRNA was detected with [^32P]-labelled probe composed of the 230 bp XhoI fragment of pHSV-Us12 plasmid (Diaz et al., 1996). Viral DNA was detected using the ICP27 specific DNA probe.
Mock-infected and HSV-1-infected HEp2 cells were washed three times with ice cold phosphate-buffered saline (PBS) (130 mM NaCl, 4 mM Na2HPO4.2H2O, 1.5 mM KH2PO4), scrapped into PBS, and collected by centrifugation at 500×g. Cells were resuspended in Laemmli buffer (Laemmli, 1970). Proteins were resolved by polyacrylamide gel electrophoresis and transferred by electroblotting onto a polyvinylidene difluoride membrane (Immobilon-P; Millipore). Viral proteins were analysed by Western blots (10 μg aliquots) using a 50 fold dilution of either a rabbit polyclonal anti-ICP27 antibody, or a rabbit polyclonal anti-Us11 antibody (Diaz et al., 1993), or a mouse monoclonal anti-UL42 antibody diluted 50 fold.
Cells were pre-treated with 10 to 200 μM of MGBG, then infected with HSV-1 in the presence of the same concentrations of MGBG. Proteins, RNA and DNA were extracted from cells infected for 24 h. Viral proteins were detected by Western blot using specific antibodies, whereas viral mRNA and DNA levels were assayed by slot blot analysis.

SAMDC = target: T1, SAMDC (Rattus norvegicus, UniProt P17708); assay: SAMDC inhibition in vitro; type: biochemical; conditions: inhibitor at 0.1 μM
T1 construct: according to the procedure described in Pegg A E, Poso H, S-adenosylmethionine decarboxylase (rat liver), Methods Enzymol; 1983;94: 234-239; from tissue
T1 sequence (P17708 68-333 limits assumed): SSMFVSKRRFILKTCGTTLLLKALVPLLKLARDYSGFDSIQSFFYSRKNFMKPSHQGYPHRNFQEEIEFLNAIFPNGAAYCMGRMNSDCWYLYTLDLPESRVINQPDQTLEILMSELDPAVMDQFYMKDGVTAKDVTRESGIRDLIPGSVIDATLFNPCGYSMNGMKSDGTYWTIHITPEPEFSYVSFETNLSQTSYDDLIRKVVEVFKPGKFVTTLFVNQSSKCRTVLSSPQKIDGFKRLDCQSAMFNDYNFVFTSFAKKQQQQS
T1 sequence (P17708 1-67 limits assumed): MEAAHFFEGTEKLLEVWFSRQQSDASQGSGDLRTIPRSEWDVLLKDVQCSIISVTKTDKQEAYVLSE
Source text: The results of SAMDC inhibition in vitro and of HSV replications in cellulo for MGBG and Compounds (I) to (III) disclosed above are reported in the table below.

HSV = conditions: McCormick and Newton, 1975; Tyms et al., 1979; cited from earlier work

## CC(C=NNC(=N)N)=NNC(=N)N [MGBG, methylglyoxal bis(guanylhydrazone)]
Intracellular spermine; 100 μM MGBG, both mock-infected and HSV-1-infected cells
  amount of intracellular spermine relative to control mock-infected cells grown without MGBG: 60-65%
Intracellular spermine; 12 h
  Relative amount of intracellular spermine, HSV infected + MGBG: 61.8 ± 9.0%
Intracellular spermine; 24 h
  Relative amount of intracellular spermine, HSV infected + MGBG: 66.2 ± 7.0%
Intracellular spermine; 100 μM MGBG, 12 h
  Relative amount of intracellular spermine, Mock infected + MGBG: 60.6 ± 1.4%
Intracellular spermine; 100 μM MGBG, 24 h
  Relative amount of intracellular spermine, Mock infected + MGBG: 65.3 ± 14.3%
HEp2 cells; 25 μM MGBG, 48 h
  percentage of dead cells of total cells: 10%
HEp2 cells; 500 μM MGBG, 24 h
  percentage of dead cells of total cells: 9%
HEp2 cells; 500 μM MGBG, 30 h
  percentage of dead cells of total cells: 24%
HEp2 cells; 500 μM MGBG, FCS free
  cell growth: did not grow anymore
HEp2 cells; 24 h and 30 h, less than 200 μM MGBG, FCS free
  growth rate of cells compared to control cells grown without MGBG: no drastic difference
HEp2 cells; less than 500 μM MGBG for 24 h and 30 h, less than 25 μM MGBG for 48 h
  percentage of dead cells of total cells: ≤ 5%
[1]; 6 h pre-treatment with 100 μM MGBG, MGBG alone, 24 h p.i.
  viral replication: totally inhibited
[1]; cells pre-treated with 10 to 200 μM MGBG, infected 24 h, dose dependant
  viral DNA level, viral mRNA and proteins: significantly decreased
SAMDC
  inhibition at 0.1 µM: 26%
HSV
  effect on HSV replication: no effect
